Test results reported in PMC8585718 (European journal of medicinal chemistry, 2021).
Structures can show the parent of a compound that is named as a salt.

Assays:
[1] = target: ZVpro (Zika virus NS2B-NS3 protease) (Zika virus, UniProt A0A024B7W1); test: Fluorescence-based biochemical assay of ZVpro inhibition; conditions: for ZVpro IC50: enzyme 1 nM, substrate 10 μM, HEPES pH 7.3
[2] = target: DV2pro (NS2B-NS3 protease from DENV serotype-2) (Dengue virus type 2, UniProt P29990); test: Fluorescence-based biochemical assay of DV2pro inhibition; conditions: IC50 vs substrate concentration 0.5 to 50 μM
ZIKV-FLR in U87 cells = test: Anti-ZIKV activity in U87 cells; assay type: cell-based, Zika virus

How did the IC50 [1] turn out when `CC(C)(C)c1ccc(-c2ccc3c(ccn3Cc3ccc(-c4ccoc4)cc3)c2)cc1` [Compound 4, 5-(4-(Tert-butyl)phenyl)-1-(4-(furan-3-yl)benzyl)-1H-indole Hydrochloride] was run?
Its IC50 is greater than 50 µM.

And the “ZVpro IC50” value [1]?
The value was “inactive”.

Which results are given for `CC(C)(C)c1ccc(-c2ccc3c(ccn3Cc3ccc(-c4ccncc4)cc3)c2)cc1` [Compound 5, 5-(4-(Tert-butyl)phenyl)-1-(4-(pyridin-4-yl)benzyl)-1H-indole Hydrochloride]?
IC50 [1]: > 50 µM; ZVpro IC50 [1]: inactive

Which IC50 [1] does the source give for `CC(C)(C)c1ccc(-c2ccc3cc(C(=O)NCC4CCNCC4)[nH]c3c2)cc1` [Compound 8, 6-(4-(Tert-butyl)phenyl)-N-(piperidin-4-ylmethyl)-1H-indole-2-carboxamide Hydrochloride] here?
Its IC50 is 1.3 µM.

With `CC(C)(C)c1ccc(-c2ccc3c(C(=O)NCC4CCNCC4)c[nH]c3n2)cc1` [Compound 9, 6-(4-(tert-butyl)phenyl)-N-(piperidin-4-ylmethyl)-1H-pyrrolo[2,3-b]pyridine-3-carboxamide Hydrochloride] as the molecule, how does the IC50 [1] read?
The IC50 was 9.1 µM.

For `CC(C)(C)c1ccc(-c2ccc3[nH]c(C(=O)NCC4CCNCC4)nc3c2)cc1` [Compound 10, 5-(4-(tert-butyl)phenyl)-N-(piperidin-4-ylmethyl)-1H-benzo[d]imidazole-2 carboxamide Hydrochloride], which IC50 [1] is on record?
The IC50 was 3.1 µM.

Which IC50 [1] does the source give for `CC(C)(C)c1ccc(-c2ccc3sc(C(=O)NC4CCNCC4)cc3c2)cc1` [Compound 11, 5-(4-(Tert-butyl)phenyl)-N-(piperidin-4-yl)benzo[b]thiophene-2-carboxamide Hydrochloride] here?
The IC50 was 3.2 µM.

Which IC50 [1] does the source give for `CC(C)(C)c1ccc(-c2ccc3cc(C(=O)NC4CCNCC4)sc3c2)cc1` [Compound 12, 6-(4-(Tert-butyl)phenyl)-N-(piperidin-4-yl)benzo[b]thiophene-2-carboxamide Hydrochloride] here?
Its IC50 is 2.1 µM.

For `CC(C)(C)c1ccc(-c2ccc3c(C(=O)NC4CCNCC4)coc3c2)cc1` [Compound 13, 6-(4-(Tert-butyl)phenyl)-N-(piperidin-4-yl)benzofuran-3-carboxamide Hydrochloride], which IC50 [1] is on record?
Its IC50 is 5.1 µM.

`N#Cc1ccc(-c2ccc3[nH]cc(C(=O)NC4CCNCC4)c3c2)cc1` [Compound 14, 5-(4-cyanophenyl)-N-(piperidin-4-yl)-1H-indole-3-carboxamide Hydrochloride] was tested. Which IC50 [1] did it give?
Its IC50 is greater than 50 µM.

With `COc1cc(-c2ccc3[nH]cc(C(=O)NC4CCNCC4)c3c2)cc(OC)c1OC` [Compound 15, N-(piperidin-4-yl)-5-(3,4,5-trimethoxyphenyl)-1H-indole-3-carboxamide Hydrochloride] as the molecule, how does the IC50 [1] read?
Its IC50 is greater than 50 µM.

How did the IC50 [1] turn out when `O=C(NCC1CCNCC1)c1c[nH]c2ccc(-c3ccc(F)cc3)cc12` [Compound 16, 5-(4-fluorophenyl)-N-(piperidin-4-ylmethyl)-1H-indole-3-carboxamide Hydrochloride] was run?
Its IC50 is greater than 50 µM.

Which IC50 [1] does the source give for `O=C(NCC1CCNCC1)c1c[nH]c2ccc(-c3ccc(F)cc3F)cc12` [Compound 17, 5-(2,4-difluorophenyl)-N-(piperidin-4-ylmethyl)-1H-indole-3-carboxamide Hydrochloride] here?
The IC50 was greater than 50 µM.

Which IC50 [1] does the source give for `O=Cc1cccc(-c2ccc3[nH]cc(C(=O)NCC4CCNCC4)c3c2)c1` [Compound 18, 5-(3-formylphenyl)-N-(piperidin-4-ylmethyl)-1H-indole-3-carboxamide Hydrochloride] here?
Its IC50 is greater than 50 µM.

How did the IC50 [1] turn out when `COc1cc(-c2ccc3c(C(=O)NCC4CCNCC4)c[nH]c3c2)cc(OC)c1OC` [Compound 19, N-(piperidin-4-ylmethyl)-6-(3,4,5-trimethoxyphenyl)-1H-indole-3-carboxamide Hydrochloride] was run?
The IC50 was greater than 50 µM.

How did the IC50 [1] turn out when `O=C(NCC1CCNCC1)c1c[nH]c2cc(-c3ccc(F)cc3)ccc12` [Compound 20, 6-(4-fluorophenyl)-N-(piperidin-4-ylmethyl)-1H-indole-3-carboxamide Hydrochloride] was run?
The IC50 was greater than 50 µM.

How did the IC50 [1] turn out when `O=C(NCC1CCNCC1)c1c[nH]c2cc(-c3ccccc3F)ccc12` [Compound 21, 6-(2-fluorophenyl)-N-(piperidin-4-ylmethyl)-1H-indole-3-carboxamide Hydrochloride] was run?
Its IC50 is greater than 50 µM.

`NCc1ccc(-c2ccc3c(C(=O)NCC4CCNCC4)c[nH]c3c2)cc1` [Compound 23, 6-(4-(aminomethyl)phenyl)-N-(piperidin-4-ylmethyl)-1H-indole-3-carboxamide Hydrochloride] was tested. Which IC50 [1] did it give?
Its IC50 is greater than 50 µM.

For `O=C(NCC1CCNCC1)c1cc2cc(-c3cccnc3)ccc2[nH]1` [Compound 33, N-(Piperidin-4-ylmethyl)-5-(pyridin-3-yl)-1H-indole-2-carboxamide Hydrochloride], which IC50 [1] is on record?
The IC50 was greater than 50 µM.

Which IC50 [1] does the source give for `O=C(NCC1CCNCC1)c1cc2ccc(-c3ccc(OC(F)(F)F)cc3)cc2[nH]1` [Compound 51, N-(Piperidin-4-ylmethyl)-6-(4-(trifluoromethoxy)phenyl)-1H-indole-2-carboxamide Hydrochloride] here?
Its IC50 is 3.2 µM.

Which results are given for `O=C(NCC1CCNCC1)c1cc2ccc(-c3ccoc3)cc2[nH]1` [Compound 66, 6-(Furan-3-yl)-N-(piperidin-4-ylmethyl)-1H-indole-2-carboxamide Hydrochloride]?
mode of inhibition against ZVpro ([1]; IC50 vs substrate concentration 0.5 to 10 μM): non-competitive; mode of inhibition against DV2pro [2]: non-competitive; log reduction of ZIKV replication in U87 cells (ZIKV-FLR in U87 cells; at 1 μM): 0.5 log; log reduction of ZIKV replication in U87 cells (ZIKV-FLR in U87 cells; at 10 μM): 2 log

How did the IC50 [1] turn out when `N#Cc1ccc(-c2ccc3c(C(=O)NC4CCNCC4)coc3c2)cc1` [Compound 69, 6-(4-Cyanophenyl)-N-(piperidin-4-yl)benzofuran-3-carboxamide Hydrochloride] was run?
Its IC50 is greater than 50 µM.
